target: T1, purified human Factor XIa (Homo sapiens, UniProt P03951); experiment: Factor XIa Assay (fluorogenic substrate Z-Gly-Pro-Arg-AFC); assay type: biochemical; details: purified human Factor XIa 40 pM; Z-Gly-Pro-Arg-AFC 100 μM; 50 mM HEPES pH 7.4; read-out: hFXIa Ki (nM), Factor XIa inhibition
T1 construct: purified human Factor XIa; purchased Sekisui Diagnostics
Experimental: The effectiveness of compound of the present invention as inhibitors of Coagulation Factor XIa can be determined using a relevant purified serine protease, and an appropriate synthetic substrate. The rate of hydrolysis of the chromogenic or fluorogenic substrate by the relevant serine protease was measured both in the absence and presence of compounds of the present invention. Assays were conducted at room temperature or at 37° C. […] A decrease in the rate of fluorescence change in the presence of inhibitor is indicative of enzyme inhibition. Such methods are known to one skilled in the art. The results of this assay are expressed as the inhibitory constant, Ki.
Factor XIa determinations were made in 50 mM HEPES buffer at pH 7.4 containing 150 mM NaCl, 5 mM CaCl2, and 0.1% PEG 8000 (polyethylene glycol; J T Baker or Fisher Scientific). Determinations were made using purified human Factor XIa at a final concentration of 40 pM (Sekisui Diagnostics) and he synthetic substrate, Z-Gly-Pro-Arg-AFC, TFA salt (Sigma #C0980) at a concentration of 100 μM.
Activity assays were performed by diluting a stock solution of substrate at least tenfold to a final concentration ≦0.1 Km into a solution containing enzyme or enzyme equilibrated with inhibitor. Times required to achieve equilibration between enzyme and inhibitor were determined in control experiments. Initial velocities of product formation in the absence (Vo) or presence of inhibitor (Vi) were measured. Assuming competitive inhibition, and that unity is negligible compared Km/[S], [I]/e, and [I]/e (where [S], [I], and e respectively represent the total concentrations, of substrate, inhibitor and enzyme), the equilibrium constant (Ki) for dissociation of the inhibitor from the enzyme can be obtained from the dependence of Vo/Vi on [I] shown in the following equation.

T1 sequence (P03951 388-625 limits assumed): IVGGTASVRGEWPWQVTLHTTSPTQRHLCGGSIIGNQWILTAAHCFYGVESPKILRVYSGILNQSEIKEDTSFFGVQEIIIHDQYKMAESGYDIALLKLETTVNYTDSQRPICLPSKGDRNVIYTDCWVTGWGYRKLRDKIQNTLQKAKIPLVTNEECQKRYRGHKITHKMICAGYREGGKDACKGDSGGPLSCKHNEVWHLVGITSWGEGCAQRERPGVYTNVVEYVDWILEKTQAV
T1 sequence (P03951 19-387 partner limits assumed): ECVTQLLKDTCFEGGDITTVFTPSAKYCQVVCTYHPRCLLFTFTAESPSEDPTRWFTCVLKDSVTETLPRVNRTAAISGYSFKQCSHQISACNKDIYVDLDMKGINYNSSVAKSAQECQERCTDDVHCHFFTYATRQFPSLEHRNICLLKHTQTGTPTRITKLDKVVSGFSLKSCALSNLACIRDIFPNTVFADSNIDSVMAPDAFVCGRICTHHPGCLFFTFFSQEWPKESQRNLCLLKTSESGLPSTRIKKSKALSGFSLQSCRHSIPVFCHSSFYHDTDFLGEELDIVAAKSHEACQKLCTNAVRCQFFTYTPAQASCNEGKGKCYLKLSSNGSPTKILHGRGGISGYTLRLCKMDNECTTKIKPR

| Structure (SMILES) | Ki [nM] |
| --- | --- |
| N#Cc1cccc(-c2c[nH]c(C3C(c4ccccc4)CCCN3C(=O)/C=C/c3cc(Cl)ccc3-n3cnnn3)n2)c1 (stereo not shown) [Example 1-27, (E)-3-(2-(1-(3-(5-chloro-2-(1H-tetrazol-1-yl)phenyl)acryloyl)-3-phenylpiperidin-2-yl)-1H-imidazol-4-yl)benzonitrile] | > 10000 |
| COc1cccc(-c2c[nH]c(C3C(c4ccccc4)CCCN3C(=O)/C=C/c3cc(Cl)ccc3-n3cnnn3)n2)c1 (stereo not shown) [Example 1-28, (E)-3-(5-chloro-2-(1H-tetrazol-1-yl)phenyl)-1-(2-(4-(3-methoxyphenyl)-1H-imidazol-2-yl)-3-phenylpiperidin-1-yl)prop-2-en-1-one] | > 10000 |
| CS(=O)(=O)c1ccc(-c2c[nH]c(C3C(c4ccccc4)CCCN3C(=O)/C=C/c3cc(Cl)ccc3-n3cnnn3)n2)cc1 (stereo not shown) [Example 1-29, (E)-3-(5-chloro-2-(1H-tetrazol-1-yl)phenyl)-1-(2-(4-(4-(methylsulfonyl)phenyl)-1H-imidazol-2-yl)-3-phenylpiperidin-1-yl)prop-2-en-1-one] | > 10000 |
| NCC1CCC(C(=O)N2CCCC(c3ccccc3)C2C(=O)Nc2ccc(C(=O)O)cc2)CC1 (stereo not shown) [Example 1-39, (4-(2-((4-carboxyphenyl)carbamoyl)-3-phenylpiperidine-1-carbonyl)cyclohexyl)methanaminium 2,2,2-trifluoroacetate] | 45.6 |
| O=C(/C=C/c1cc(Cl)ccc1-n1cnnn1)N1CCCC(c2ccccc2)C1c1nc(-c2ccccn2)c[nH]1 (stereo not shown) [Example 1-41, (E)-3-(5-chloro-2-(1H-tetrazol-1-yl)phenyl)-1-(3-phenyl-2-(4-(pyridin-2-yl)-1H-imidazol-2-yl)piperidin-1-yl)prop-2-en-1-one] | 3270 |
| O=C(/C=C/c1cc(Cl)ccc1-n1cnnn1)N1CCCC(c2ccccc2)C1c1nc(-c2ccncc2)c[nH]1 (stereo not shown) [Example 1-42, (E)-3-(5-chloro-2-(1H-tetrazol-1-yl)phenyl)-1-(3-phenyl-2-(4-(pyridin-4-yl)-1H-imidazol-2-yl)piperidin-1-yl)prop-2-en-1-one] | 237 |
| NCc1ccc(C(=O)N2CCCC(c3ccccc3)C2C(=O)Nc2ccc(C(=O)O)cc2)cc1C1CC1 (stereo not shown) [Example 1-43, (4-(2-((4-carboxyphenyl)carbamoyl)-3-phenylpiperidine-1-carbonyl)-2-cyclopropylphenyl)methanaminium 2,2,2-trifluoroacetate] | 169 |
| COC(=O)Nc1ccc(-c2c[nH]c(C3C(c4ccccc4)CCCN3C(=O)/C=C/c3cc(Cl)ccc3-n3cnnn3)n2)c(Br)c1 (stereo not shown) [Example 1-44, (E)-methyl (3-bromo-4-(2-(1-(3-(5-chloro-2-(1H-tetrazol-1-yl)phenyl)acryloyl)-3-phenylpiperidin-2-yl)-1H-imidazol-4-yl)phenyl)carbamate] | 411 |
| COC(=O)Nc1ccc(-c2c[nH]c(C3C(c4ccccc4)CCCN3C(=O)/C=C/c3cc(Cl)ccc3-n3cnnn3)n2)c(N)c1 (stereo not shown) [Example 1-48, (E)-methyl (3-amino-4-(2-(1-(3-(5-chloro-2-(1H-tetrazol-1-yl)phenyl)acryloyl)-3-phenylpiperidin-2-yl)-1H-imidazol-4-yl)phenyl)carbamate] | 103 |
| NCC1CCC(C(=O)N2CCCC(c3ccccc3)C2C(=O)Nc2ccc(C(=O)O)cc2)CC1 (stereo not shown) [Example 1-49, 4-(1-(4-(aminomethyl)cyclohexanecarbonyl)-3-phenylpiperidine-2-carboxamido)benzoic acid] | 916 |
| NCC1CCC(C(=O)N2CCCC(c3ccccc3)C2C(=O)Nc2ccc(C(=O)O)cc2)CC1 (stereo not shown) [Example 1-50, 4-(1-(4-(aminomethyl)cyclohexanecarbonyl)-3-phenylpiperidine-2-carboxamido)benzoic acid] | 72.8 |
| CCCC(=O)Nc1cc(NC(=O)OC)ccc1-c1c[nH]c(C2C(c3ccccc3)CCCN2C(=O)/C=C/c2cc(Cl)ccc2-n2cnnn2)n1 (stereo not shown) [Example 1-51, (E)-methyl (3-butyramido-4-(2-(1-(3-(5-chloro-2-(1H-tetrazol-1-yl)phenyl)acryloyl)-3-phenylpiperidin-2-yl)-1H-imidazol-4-yl)phenyl)carbamate] | > 10000 |

Other lines, results leading:

| Ki [nM] | Structure (SMILES) |
| --- | --- |
| > 10000 | O=C(/C=C/c1cc(Cl)ccc1-n1cnnn1)N1CCCC(c2ccccc2)C1c1nc(-c2ccc(C(F)(F)F)cc2)c[nH]1 (stereo not shown) [Example 1-30, (E)-3-(5-chloro-2-(1H-tetrazol-1-yl)phenyl)-1-(3-phenyl-2-(4-(4-(trifluoromethyl)phenyl)-1H-imidazol-2-yl)piperidin-1-yl)prop-2-en-1-one] |
| > 10000 | O=C(/C=C/c1cc(Cl)ccc1-n1cnnn1)N1CCCC(c2ccccc2)C1c1nc(-c2cccc(C(F)(F)F)c2)c[nH]1 (stereo not shown) [Example 1-31, (E)-3-(5-chloro-2-(1H-tetrazol-1-yl)phenyl)-1-(3-phenyl-2-(4-(3-(tifluoromethyl)phenyl)-1H-imidazol-2-yl)piperidin-1-yl)prop-2-en-1-one] |
| 218 | O=C(O)c1ccc(NC(=O)C2C(c3ccc(C(F)(F)F)cc3)CCCN2C(=O)/C=C/c2cc(Cl)ccc2-n2cnnn2)cc1 (stereo not shown) [Example 1-32, (E)-4-(1-(3-(5-chloro-2-(1H-tetrazol-1-yl)phenyl)acryloyl)-3-(4-(trifluoromethyl)phenyl)piperidine-2-carboxamido)benzoic acid] |
| 46.7 | Nc1ccc(C2CCCN(C(=O)/C=C/c3cc(Cl)ccc3-n3cnnn3)C2C(=O)Nc2ccc(C(=O)O)cc2)cc1 (stereo not shown) [Example 1-33, (E)-4-(3-(4-aminophenyl)-1-(3-(5-chloro-2-(1H-tetrazol-1-yl)phenyl)acryloyl)piperidine-2-carboxamido)benzoic] |
| 24.9 | O=C(/C=C/c1cc(Cl)ccc1-n1cnnn1)Nc1ccc(C2CCCN(C(=O)/C=C/c3cc(Cl)ccc3-n3cnnn3)C2C(=O)Nc2ccc(C(=O)O)cc2)cc1 (stereo not shown) [Example 1-34, 4-(3-(4-((E)-3-(5-chloro-2-(1H-tetrazol-1-yl)phenyl)acrylamido)phenyl)-1-((E)-3-(5-chloro-2-(1H-tetrazol-1-yl)phenyl)acryloyl)piperidine-2-carboxamido)benzoic acid] |
| 122 | O=C(O)c1ccc(NC(=O)C2C(c3ccc(OC(F)(F)F)cc3)CCCN2C(=O)/C=C/c2cc(Cl)ccc2-n2cnnn2)cc1 (stereo not shown) [Example 1-35, (E)-4-(1-(3-(5-chloro-2-(1H-tetrazol-1-yl)phenyl)acryloyl)-3-(4-(tifluoromethoxy)phenyl)piperidine-2-carboxamido)benzoic acid] |
| 36.2 | NC(=O)c1ccc(C2CCCN(C(=O)/C=C/c3cc(Cl)ccc3-n3cnnn3)C2C(=O)Nc2ccc(C(=O)O)cc2)cc1 (stereo not shown) [Example 1-36, (E)-4-(3-(4-carbamoylphenyl)-1-(3-(5-chloro-2-(1H-tetrazol-1-yl)phenyl)acryloyl)piperidine-2-carboxamido)benzoic acid] |
| 51.5 | Cc1cc(C2CCCN(C(=O)/C=C/c3cc(Cl)ccc3-n3cnnn3)C2C(=O)Nc2ccc(C(=O)O)cc2)ccc1F (stereo not shown) [Example 1-37, (E)-4-(1-(3-(5-chloro-2-(1H-tetrazol-1-yl)phenyl)acryloyl)-3-(4-fluoro-3-methylphenyl)piperidine-2-carboxamido)benzoic acid] |
| 90 | COC(=O)Nc1ccc(-c2c[nH]c(C3C(c4ccccc4)CCCN3C(=O)/C=C/c3cc(Cl)ccc3-n3cnnn3)n2)cc1 (stereo not shown) [Example 1-38, (E)-methyl (4-(2-(1-(3-(5-chloro-2-(1H-tetrazol-1-yl)phenyl)acryloyl)-3-phenylpiperidin-2-yl)-1H-imidazol-4-yl)phenyl)carbamate] |
| > 10000 | COC(=O)c1ccc(-c2c[nH]c(C3C(c4ccccc4)CCCN3C(=O)/C=C/c3cc(Cl)ccc3-n3cnnn3)n2)cc1 (stereo not shown) [Example 1-40, (E)-methyl 4-(2-(1-(3-(5-chloro-2-(1H-tetrazol-1-yl)phenyl)acryloyl)-3-phenylpiperidin-2-yl)-1H-imidazol-4-yl)benzoate] |
| 2820 | O=C(O)c1ccc(-c2c[nH]c(C3C(c4ccccc4)CCCN3C(=O)/C=C/c3cc(Cl)ccc3-n3cnnn3)n2)cc1 (stereo not shown) [Example 1-45, (E)-4-(2-(1-(3-(5-chloro-2-(1H-tetrazol-1-yl)phenyl)acryloyl)-3-phenylpiperidin-2-yl)-1H-imidazol-4-yl)benzoic acid] |
| 65.5 | COC(=O)Nc1ccc(-c2c[nH]c(C3C(c4ccccc4)CCCN3C(=O)/C=C/c3cc(Cl)ccc3-n3cnnn3)n2)cc1 (stereo not shown) [Example 1-46, (E)-methyl (4-(2-(1-(3-(5-chloro-2-(1H-tetrazol-1-yl)phenyl)acryloyl)-3-phenylpiperidin-2-yl)-1H-imidazol-4-yl)phenyl)carbamate] |
| > 10000 | COC(=O)Nc1ccc(-c2c[nH]c(C3C(c4ccccc4)CCCN3C(=O)/C=C/c3cc(Cl)ccc3-n3cnnn3)n2)cc1 (stereo not shown) [Example 1-47, (E)-methyl (4-(2-(1-(3-(5-chloro-2-(1H-tetrazol-1-yl)phenyl)acryloyl)-3-phenylpiperidin-2-yl)-1H-imidazol-4-yl)phenyl)carbamate] |
